Key:
[1] = tested on: EGFP-PYL and NES-ABI in CHO cells; assay: Live cell confocal EGFP nuclear export; assay type: cell-based; conditions: 10 μM, 405 nm irradiation, followed 20 minutes
Experimental: (§1) To test the uncaging process in live cell experiments, EGFP nuclear export experiments were carried out by transfecting CHO cells with EGFP-PYL and NES-ABI constructs. The cells were then either treated with 10 μM ABA-DEACM and with or without 405 nm light irradiation under a confocal microscope, or with no drug but irradiated. The subcellular location of EGFP was followed for 20 minutes after irradiation. […] We also tested the use of ABA-DEACM in live cell imaging to induce cell morphology changes. We transfected CHO cells in a culture chamber with myr-ABI and EGFP-PYLTiam1 constructs.
Live cell confocal microscopy irradiation and imaging: EGFP fluorescence of CHO cells was detected with an LSM 510 Meta confocal mounted on an AxioObserver inverted microscope (Carl Zeiss AG, Oberkochen, Germany). […] To image, fluorescence was excited with the 488 nm line of an argon laser (30 mW) with laser power attenuated to 50%. […]
Image analysis of fluorescence intensity in nuclear export experiments: Generated images were analyzed for fluorescence intensity by using Slide Book v.6 software (Intelligent Imaging Innovations, Inc., Denver, Colo.). Equal sized regions of interest were analyzed from the cytoplasm and the nucleus to compare fluorescent intensity of EGFP in three cells for each condition from images taken every 20 seconds for a duration of 20 minutes.

[2] = tested on: myr-ABI and EGFP-PYL-Tiam1 in CHO cells; assay: Live cell imaging of cytoskeletal remodeling; assay type: cell-based; conditions: 405 nm irradiation
Experimental: as §1
Live cell confocal microscopy irradiation and imaging: EGFP fluorescence of CHO cells was detected with an LSM 510 Meta confocal mounted on an AxioObserver inverted microscope (Carl Zeiss AG, Oberkochen, Germany). ABA-DEACM was uncaged by using a 405 nm UV laser (25 mW) set to 25% power for approximately three seconds. To image, fluorescence was excited with the 488 nm line of an argon laser (30 mW) with laser power attenuated to 50%. EGFP emission was collected with a FITC filter. Live cells were plated in 8-well coverslip-bottom culture chambers in medium (200 μL) and maintained at 37° C. with an objective lens heater (Bioptechs Inc., Butler, Pa.). Culture medium was exchanged with OptiMEM (GIBCO, Life Technologies, Carlsbad, Calif.) with caged ABA or no drug prior to imaging. Images were acquired every 10 to 20 seconds in different experiments with a 63×5/1.2 NA water objective.

[3] = Chemical stability of ABA-HP in HEPES/DMSO (HPLC); assay type: physicochemical; conditions: 1 mM, 50% HEPES/DMSO pH 7.4, 37° C., 24 hours
Experimental: (§2) Chemical stability and reactivity of ABA-HP towards H2O2: ABA-HP chemical stability: 1 mM ABA-HP (in DMSO) was incubated in 50% HEPES/DMSO (10 mM HEPES, pH 7.4) for 24 hours at 37° C. HPLC results were detected at 0 minutes, 20 minutes, 40 minutes, 60 minutes, 80 minutes, 100 minutes, 120 minutes, 240 minutes, and 24 hours. ABA-HP reactivity towards H2O2: 1 mM ABA-HP was incubated with 5 mM (5 eq) H2O2 in 50% HEPES/DMSO (10 mM HEPES, pH 7.4) at 37° C. HPLC results were detected at 0 minutes, 20 minutes, 40 minutes, 80 minutes, 100 minutes, 120 minutes, and 240 minutes (FIGS. 1c, 4a and 4b). 100 mM H2O2 was diluted with 11 μL of 30% (10 M) stock H2O2 (VWR) and 989 μL of ddH2O. […] HPLC chromatograms were acquired using an ULTIMATE 3000 LC System (Thermo Fisher Scientific, Waltham, Mass.) with ACCLAIM 120 Å, C18, 3 μm analytical (4.6×100 mm) column (Thermo Fisher Scientific, Waltham, Mass.). Chromatographic conditions: eluent A: 0.1% v/v TFA in water; eluent B: 0.1% v/v TFA in acetonitrile. ABA in ethanol or ABA-HP in DMSO was eluted at a flow rate of 0.750 ml/min monitored at a wavelength of 260 nm. 0-12 min (linear): 95% A, 5% B to 5% A, 95% B; 12-15 min: 5% A, 95% B; 15-17 min (linear): 5% A, 95% B to 95% A, 5% B. Generation of ABA was quantified by the peak area of ABA out of the total peak area.

[4] = ABA-HP reactivity towards H2O2 (HPLC); assay type: physicochemical; conditions: 1 mM + H2O2 (5 eq), 50% HEPES/DMSO, 37° C.
Experimental: as §2

[5] = Reaction selectivity of ABA-HP versus different molecules (HPLC); assay type: physicochemical; conditions: four hours
Experimental: Reaction selectivity versus different molecules: 100 μM ABA-HP was incubated with 100 μM (1 eq) of different molecules in 50% HEPES/DMSO (pH 7.4) at 37° C. for 4 hours and detected by HPLC. H2S was generated by 100 μM Na2S solution in HEPES buffer, which can slowly release H2S. .OH and .OtBu were generated by reaction of Fe^2+ with H2O2 or tert-butyl hydroperoxide (TBHP), respectively. HPLC condition was the same as the stability and reactivity test of ABA-HP.

For `CCN(CC)c1ccc2c(COC(=O)/C=C(C)\C=C\[C@@]3(O)C(C)=CC(=O)CC3(C)C)cc(=O)oc2c1` [ABA-DEACM], the “nuclear export of EGFP fusion proteins” value [1] was “observed within a few minutes”, the “start of membrane ruffling after uncaging” value [2] was 5 min and the “time to formation of fillopodia and lemellopodia” value [2] was no more than 15 min. The “time to formation of filopodia and lamellipodia” value [2] was no more than 15 min.
In the case of `CC1=CC(=O)CC(C)(C)[C@@]1(O)/C=C/C(C)=C\C(=O)OCc1ccc(B2OC(C)(C)C(C)(C)O2)cc1` [ABA-HP], the “chemical stability in biological buffer” value [3] is reported as “stable in biological buffer at 37 °C throughout the 24-hour observation period”, the “completion of transformation to ABA” value [4] is reported as “completed in four hours” and the “start of conversion back to ABA” value [4] is reported as “within minutes”. The “stability against other ROS, H2S, metal ions” value ([5]; 100 μM ABA-HP, molecules at 100 μM, 37° C.) was “stable against all molecules tested at 100 μM”, the “effect of Cu^+ and Cu^2+” value ([5]; Cu^+ and Cu^2+ at 10 μM) was “no effects” and the “cleavage by Cu^+ and Cu^2+” value ([5]; Cu^+ and Cu^2+ at 100 μM) was “minimal amount of cleavage”.
